This is an account of results in patent publication US5420128A, “Pyrimidine derivatives, method of manufacturing the same, and androgen inhibitor” (Otsuka Pharmaceutical Co., Ltd., priority 1990, dated 1995).

The test addresses T1, rat prostate androgen receptor (Rattus norvegicus, UniProt P15207).
T1 construct: the supernatant was obtained as cytoplasm fraction; from tissue; host or cells: cytosol (105000×g supernatant) of rat ventral prostate, 24 hours after castration
T1 sequence (P15207 1-902): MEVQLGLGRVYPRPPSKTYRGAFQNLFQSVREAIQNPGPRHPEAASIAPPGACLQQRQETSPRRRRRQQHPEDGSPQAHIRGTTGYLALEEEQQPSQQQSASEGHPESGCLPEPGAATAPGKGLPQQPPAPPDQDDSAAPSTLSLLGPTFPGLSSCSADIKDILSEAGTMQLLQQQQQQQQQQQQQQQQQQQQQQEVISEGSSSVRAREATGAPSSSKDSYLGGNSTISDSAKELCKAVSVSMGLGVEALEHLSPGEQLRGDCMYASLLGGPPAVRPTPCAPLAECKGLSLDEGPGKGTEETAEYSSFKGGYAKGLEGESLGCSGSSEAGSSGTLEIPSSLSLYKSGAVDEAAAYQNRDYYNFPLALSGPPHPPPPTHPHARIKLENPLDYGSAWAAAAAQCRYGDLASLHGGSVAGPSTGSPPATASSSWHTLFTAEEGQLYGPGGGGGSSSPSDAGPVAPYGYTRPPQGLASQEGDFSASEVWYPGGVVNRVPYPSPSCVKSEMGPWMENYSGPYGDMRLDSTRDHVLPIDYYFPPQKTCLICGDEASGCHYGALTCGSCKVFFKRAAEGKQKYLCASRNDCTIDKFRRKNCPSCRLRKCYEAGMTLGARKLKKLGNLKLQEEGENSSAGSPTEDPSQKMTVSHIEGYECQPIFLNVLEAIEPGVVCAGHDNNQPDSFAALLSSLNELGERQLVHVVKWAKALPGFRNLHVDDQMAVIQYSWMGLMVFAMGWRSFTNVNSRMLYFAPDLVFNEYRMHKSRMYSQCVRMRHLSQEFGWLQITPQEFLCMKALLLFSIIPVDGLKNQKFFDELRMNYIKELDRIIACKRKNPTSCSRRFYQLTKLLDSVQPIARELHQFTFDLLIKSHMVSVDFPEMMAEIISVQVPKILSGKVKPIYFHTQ
Put plainly: inhibitory activity on binding of ^3 H-mibolerone on rat prostate androgen receptor. The conditions noted are these: ^3 H-mibolerone 1 nM, triamcinolone acetonide 5 μM, rat ventral prostate cytosol, 20 hours at 0° C.; read-out: Inhibitory activity on mibolerone specific binding [IC50 (M)].
Method: B. Measurement of inhibitory activity on binding of ^3 H-mibolerone on rat prostate androgen receptor
(1) Preparation of cytosol from rat prostate
The rat was sacrificed 24 hours after castration, and the ventral lobe of prostate was removed, and was gently homogenized, in ice-cooling water bath, at first by using Polytron and then using Potter type homogenizer, in three-fold amount of buffer solution A (1.5 mM EDTA, 2 mM dithiothreitol, 10 mM molybdate sodium, 10 % by volume of glycerol, 10 mM NaF, 25 mM phosphate sodium, pH 7.2). The obtained homogenate was filtrated through double gauze, and centrifuged at 105000×g for 60 minutes at 4° C., and the supernatant was obtained as cytoplasm fraction.
(2) Measurement of specific binding of ^3 H-mibolerone on prostate cytoplasm androgen receptor
To the cytoplasm fraction obtained in (1), ^3 H-mibolerone (87.0 Ci/mmol) was added, so that a final concentration is adjusted to 1 nM, and at the same time, in order to inhibit binding of ^3 H-mibolerone to progestin receptor, triamsinolone acetonide was added to a final concentration of 5 μM, and the final volume was adjusted to 0.4 ml with buffer solution A, and the reaction mixture was incubated for 20 hours at 0° C. After incubation, 0.5 ml of 60% hydroxylapatite slurry (washed and equilibrate with a buffer solution B: 10 mM NaH2 P04, 20 mM tris-hydrochloric acid, pH 7.2) was added, and incubated for 10 minutes at 0° C., the solution was transferred onto a glass fiber filter, and washed five times with 5 ml portions of buffer solution B containing 0.1% (weight/volume) of Triton X-100, to remove free ^3 H-mibolerone. This glass fiber was transferred into vial, and 10 ml of aquasol-2 was added, and the radioactivity was measured, and the total binding amount of ^3 H-mibolerone on prostate cytoplasm androgen receptor was determined.
The nonspecific binding amount was determined similarly by adding an unlabeled 5α-DHT in the reaction solution to a final concentration of 1 μM. The difference between the total binding amount and nonspecific binding amount was determined as the specific binding amount on the androgen receptor.
(3) Inhibitory activity of sample compounds on ^3 H-mibolerone specific binding
The compounds obtained in the experiments were added simultaneously with ^3 H-mibolerone at different concentrations to incubate same as in (2), and the specific binding amount of 3H-mibolerone on androgen receptor was determined. Comparing this value with the value obtained in (2), the IC50 value of inhibitory activity of the compounds on ^3 H-mibolerone specific binding was determined.
By IC50 is commonly meant the concentration needed to halve the response being measured. For “7-Hydroxy-6-ethoxycarbonylmethyl-3-(4-phenylthiophenyl)pyrazolo[1,5-a]pyrimidine [Example 34]”, the IC50 was 2.9e-07 M. On to `CCc1cc(O)n2ncc(-c3ccc(Sc4ccccc4)cc3)c2n1` [Example 6, 7-Hydroxy-5-ethyl-3-(4-phenylthiophenyl)pyrazolo[1,5-a]pyrimidine], for which the IC50 is 9e-07 M. As for `CC(C)c1cc(O)n2ncc(-c3ccc(Sc4ccccc4)cc3)c2n1` [Example 7, 7-Hydroxy-5-isopropyl-3-(4-phenylthiophenyl)pyrazolo[1,5-a]pyrimidine], the IC50 is 1.3e-05 M. Take `Oc1cc(C2CC2)nc2c(-c3ccc(Sc4ccccc4)cc3)cnn12` [Example 8, 7-Hydroxy-5-cyclopropyl-3-(4-phenylthiophenyl)pyrazolo[1,5-a]pyrimidine]: the IC50 was 1.7e-06 M. On to `Oc1cc(CCl)nc2c(-c3ccc(Sc4ccccc4)cc3)cnn12` [Example 9, 7-Hydroxy-5-chloromethyl-3-(4-phenylthiophenyl)pyrazolo[1,5-a]pyrimidine], for which the IC50 stood at 3.1e-05 M.

With `Oc1cc(-c2ccccc2)nc2c(-c3ccc(Sc4ccccc4)cc3)cnn12` [Example 10, 7-Hydroxy-5-phenyl-3-(4-phenylthiophenyl)pyrazolo[1,5-a]pyrimidine], the IC50 was > 5e-06 M. As for `Oc1c2c(nc3c(-c4ccc(Sc5ccccc5)cc4)cnn13)CCC2` [Example 11, 5H-6,7-Dihydro-8-hydroxy-3-(4-phenylthiophenyl)cyclopenta[d]pyrazolo[1,5-a]pyrimidine], the half-inhibitory concentration (IC50) turned out to be 4.2e-07 M. Take `Oc1c2c(nc3c(-c4ccc(Sc5ccccc5)cc4)cnn13)CCCC2` [Example 12, 9-Hydroxy-3-(4-phenylthiophenyl)-5,6,7,8-tetrahydropyrazolo[5,1-b]quinazoline]: the IC50 is > 5e-06 M.

Consider `Oc1cc(C(F)(F)F)nc2c(-c3ccc(Sc4ccccc4)cc3)cnn12` [Example 13, 7-Hydroxy-5-trifluoromethyl-3-(4-phenylthiophenyl)pyrazolo[1,5-a]pyrimidine], for which the IC50 was found to be 2e-06 M. `CCOC(=O)c1cnc2c(-c3ccc(Sc4ccccc4)c(OC)c3)cnn2c1O` [Example 14, 7-Hydroxy-6-ethoxycarbonyl-3-(3-methoxy-4-phenylthiophenyl)pyrazolo[1,5-a]pyrimidine]: the IC50 worked out at 2e-07 M. Regarding `COc1cc(-c2cnn3c(O)ccnc23)ccc1Sc1ccccc1` [Example 15, 7-Hydroxy-3-(3-methoxy-4-penylthiophenyl)pyrazolo[1,5-a]pyrimidine], the IC50 was 1.5e-07 M. On to `Cc1nn2c(O)ccnc2c1-c1ccc(Sc2ccccc2)cc1` [Example 18, 7-Hydroxy-2-methyl-3-(4-phenylthiophenyl)pyrazolo[1,5-a]pyrimidine], for which the IC50 came to 1.2e-06 M. In the case of `COCc1nn2c(O)ccnc2c1-c1ccc(Sc2ccccc2)cc1` [Example 19, 7-Hydroxy-2-methoxymethyl-3-(4-phenylthiophenyl)pyrazolo[1,5-a]pyrimidine], the 50% inhibitory concentration (IC50) was > 5e-06 M. As for `COc1cnc2c(-c3ccc(Sc4ccccc4)cc3)cnn2c1O` [Example 21, 7-Hydroxy-6-methoxy-3-(4-phenylthiophenyl)pyrazolo[1,5-a]pyrimidine], the figure is 1.65e-07 M. As for `Oc1c(F)cnc2c(-c3ccc(Sc4ccccc4)cc3)cnn12` [Example 22], the figure is 5.2e-08 M; as for `Oc1c(-c2ccccc2)cnc2c(-c3ccc(Sc4ccccc4)cc3)cnn12` [Example 23, 7-Hydroxy-6-phenyl-3-(4-phenylthiophenyl)pyrazolo[1,5-a]pyrimidine], 5.8e-08 M; as for `Cc1cnc2c(-c3ccc(Sc4ccccc4)cc3)cnn2c1O` [Example 24, 7-Hydroxy-6-methyl-3-(4-phenylthiophenyl)pyrazolo[1,5-a]pyrimidine], 6.4e-08 M. Regarding `CCc1cnc2c(-c3ccc(Sc4ccccc4)cc3)cnn2c1O` [Example 25, 7-Hydroxy-6-ethyl-3-(4-phenylthiophenyl)pyrazolo[1,5-a]pyrimidine], the IC50 was determined as 1.6e-07 M. As for `CC(C)c1cnc2c(-c3ccc(Sc4ccccc4)cc3)cnn2c1O` [Example 26, 7-Hydroxy-6-isopropyl-3-(4-phenylthiophenyl)pyrazolo[1,5-a]pyrimidine], the figure is 1.8e-07 M; as for `Oc1c(C2CCCCC2)cnc2c(-c3ccc(Sc4ccccc4)cc3)cnn12` [Example 27, 7-Hydroxy-6-cyclohexyl-3-(4-phenylthiophenyl)pyrazolo[1,5-a]pyrimidine], 1.3e-07 M; as for `Oc1c(CCc2ccccc2)cnc2c(-c3ccc(Sc4ccccc4)cc3)cnn12` [Example 28, 7-Hydroxy-6-phenethyl-3-(4-phenylthiophenyl)pyrazolo[1,5-a]pyrimidine], > 5e-06 M. As for `Oc1c(Cc2ccccc2)cnc2c(-c3ccc(Sc4ccccc4)cc3)cnn12` [Example 29, 7-Hydroxy-6-benzyl-3-(4-phenylthiophenyl)prazolo[1,5-a]pyrimidine], the figure is 2.5e-08 M; as for `COc1ccccc1Cc1cnc2c(-c3ccc(Sc4ccccc4)cc3)cnn2c1O` [Example 30, 7-Hydroxy-6-(2-methoxyphenylmethyl)-3-(4-phenylthiophenyl)pyrazolo[1,5-a]pyrimidine], 3.2e-07 M. With `CCOC(=O)Cc1cnc2c(-c3ccc(Sc4ccccc4)cc3)cnn2c1O` [Example 33, 7-Hydroxy-6-ethoxycarbonylmethyl-3-(4-phenylthiophenyl)pyrazolo[1,5-a]pyrimidine], the concentration for half-maximal inhibition (IC50) turned out to be 2.8e-07 M. For the compound `Oc1c(Br)cnc2c(-c3ccc(Sc4ccccc4)cc3)cnn12` [Example 35, 7-Hydroxy-6-bromo-3-(4-phenylthiophenyl)pyrazolo[1,5a]pyrimidine], the IC50 came to 8.8e-08 M. As for `Oc1c(Cl)cnc2c(-c3ccc(Sc4ccccc4)cc3)cnn12` [Example 36, 7-Hydroxy-6-chloro-3-(4-phenylthiophenyl)pyrazolo[1,5-a]pyrimidine], the figure is 1.3e-07 M. As for `Cc1nc2c(-c3ccc(Sc4ccccc4)cc3)cnn2c(O)c1Cl` [Example 37, 7-hydroxy-6-chloro-5-methyl-3-(4-phenylthiophenyl)pyrazolo[1,5-a]pyrimidine], the figure is 5.8e-07 M. The same measure for `O=C(O)c1cnc2c(-c3ccc(Sc4ccccc4)cc3)cnn2c1O` [Example 38, 7-Hydroxy-6-carboxy-3-(4-phenylthiophenyl)pyrazolo[1,5-a]pyrimidine]: 5.8e-08 M; for `O=C(O)CCc1cnc2c(-c3ccc(Sc4ccccc4)cc3)cnn2c1O` [Example 39, 7-Hydroxy-6-carboxyethyl-3-(4-phenylthiophenyl)pyrazolo[1,5-a]pyrimidine]: 1.3e-07 M; for `O=C(O)Cc1cnc2c(-c3ccc(Sc4ccccc4)cc3)cnn2c1O` [Example 40, 7-Hydroxy-6-carboxymethyl-3-(4-phenylthiophenyl)pyrazolo[1,5-a]pyrimidine]: 2.2e-08 M. With `O=C(Nc1ccccc1)c1cnc2c(-c3ccc(Sc4ccccc4)cc3)cnn2c1O` [Example 42, 7-Hydroxy-6-(N-phenylcarbamoyl)-3-(4-phenylthiophenyl)pyrazolo[1,5-a]pyrimidine], the IC50 amounted to 3e-06 M. `NC(=O)c1cnc2c(-c3ccc(Sc4ccccc4)cc3)cnn2c1O` [Example 43]: the half-maximal inhibitory concentration (IC50) came to 7.6e-08 M. In the case of `COc1cc(-c2cnn3c(O)c(C(N)=O)cnc23)ccc1Sc1ccccc1` [Example 44, 6-Carbamoyl-7-hydroxy-3-(3-methoxy-4-phenylthiophenyl)pyrazolo[1,5-a]pyrimidine], the IC50 amounted to 7.7e-08 M.
